Results: PMC8144490, “Synthesis and Cytotoxic Activity of Novel Indole Derivatives and Their in silico Screening on Spike Glycoprotein of SARS-CoV-2” (Frontiers in Molecular Biosciences, 2021)
pIC50: −log10 of the molar value. Like-named read-outs stand apart in the source and are kept apart here.

Tests used:
Format in all cases: cell-based
[1] = tested on: human embryonic kidney cells (HEK-293); experiment: In vitro cytotoxicity on normal cells, MTT assay, HEK-293; conditions: HEK293, HEK-293 normal kidney cells
Protocol: (§1) The newly prepared compounds 1a–1j are examined for their cytotoxic activity according to the United States NCI protocol, which was a previously reported method ([Chadha and Silakari, 2017]). The 50% growth inhibition (GI50), tumor growth inhibition (TGI), and lethal concentration (LC50) values were determined. […] Doxorubicin was used as a standard drug. None of the tested derivatives had shown significant activity toward the cancer cell lines. The compounds were also evaluated for their possible cytotoxicity in human embryonic kidney cells (HEK-293), lung cells (MRC-5), and liver cells (LO2) by employing MTT assay. […] The results of cytotoxic screening of compounds (1a–1j) are shown in Table 2, and in vitro cytotoxicity of indole derivatives (1a–1j) on normal cells are shown in Table 3.
(§2) None of the tested derivatives had shown significant activity toward the cancer cell lines. The compounds were also evaluated for the possible cytotoxicity in human embryonic kidney cells (HEK-293), lung cells (MRC5), and liver cells (LO2) by employing MTT assay.

[2] = tested on: MCF-7 (Breast) cancer cell line; experiment: Cytotoxic activity (United States NCI protocol), MCF-7; conditions: Homo sapiens; for GI50: 50% growth inhibition; for IC (TGI): tumor growth inhibition
Protocol: (§3) The cytotoxicity experiment was performed according to the United States NCI protocol, previously reported method. A detailed experimental procedure was given in Supplementary Material ([Premnath et al., 2015]).
as §1

lung cells (MRC5) = experiment: In vitro cytotoxicity on normal cells, MTT assay, MRC5; conditions: Homo sapiens
Protocol: as §1, §2

[3] = tested on: HepG2 (Liver) cancer cell line; experiment: Cytotoxic activity (United States NCI protocol), HepG2; conditions: Homo sapiens
Protocol: as §3, §1

liver cells (LO2) = experiment: In vitro cytotoxicity on normal cells, MTT assay, LO2
Protocol: as §1, §2

[4] = tested on: HeLa (Cervical) cancer cell line; experiment: Cytotoxic activity (United States NCI protocol), HeLa; conditions: Homo sapiens; for IC (TGI): read-out: TGI
Protocol: as §3, §1

[5] = MCF7, MCF-7, lethal concentration, read-out: LC50 (the source's name)
[6] = HepG2, lethal concentration, read-out: LC50
[7] = HepG2, tumor growth inhibition, read-out: TGI
[8] = 50% growth inhibition, read-out: GI50
[9] = lethal concentration, read-out: LC50 (the source's name)

In the case of `C(=N\NC(c1ccccc1)n1ccc2ccccc21)/c1ccco1` (centres unmarked) [Compound 1a], the pIC50 [1] was 4.15, the CC50 ([2]; MCF7, read-out: LC50) was over 100 µM and the pIC50 (lung cells (MRC5)) was 4.12. For the same compound, the GI50 ([3]; HepG2) was 43.2 µM, the LC50 (NCI lethal concentration 50%) ([3]; HepG2, read-out: LC50) was over 100 µM and the IC (TGI) ([3]; HepG2, read-out: TGI) was 78.3 µM. For the same compound, the pIC50 (liver cells (LO2)) was 4.17 and the CC50 ([4]; read-out: LC50) was 100 µM.

`O=[N+]([O-])c1cccc(C(N/N=C/c2ccco2)n2ccc3ccccc32)c1` (centres unmarked) [Compound 1b] was tested, and the pIC50 [1] was 4.21, the GI50 ([2]; MCF7, MCF-7) was 46.1 µM and the CC50 [2, 5] was over 100 µM. For the same compound, the IC (TGI) ([2]; MCF7, MCF-7) was 85.1 µM, the pIC50 (lung cells (MRC5)) was 4.17 and the GI50 ([3]; HepG2) was 42.2 µM. For the same compound, the LC50 (NCI lethal concentration 50%) [3, 6] was 56.8 µM, the IC (TGI) [3, 7] was 23.1 µM and the pIC50 (liver cells (LO2)) was 4.14. For the same compound, the GI50 [4, 8] was 51 µM, the CC50 [4, 9] was over 100 µM and the IC (TGI) ([4]; tumor growth inhibition) was 89.2 µM.

`Oc1ccc(C(NN=Cc2ccco2)n2ccc3ccccc32)cc1` (centres unmarked) [Compound 1c] showed a pIC50 [1] of 4.09, a CC50 ([2]; MCF7, read-out: LC50) of 0.55 µM and a pIC50 (lung cells (MRC5)) of 4.06. For the same compound, the GI50 ([3]; HepG2) was 36.3 µM, the LC50 (NCI lethal concentration 50%) ([3]; HepG2, read-out: LC50) was 0.9 µM and the IC (TGI) ([3]; HepG2, read-out: TGI) was 65.3 µM. For the same compound, the pIC50 (liver cells (LO2)) was 4.06, the GI50 [4] was 41.3 µM and the CC50 ([4]; read-out: LC50) was 0.5 µM. The IC (TGI) [4] was 87.2 µM.

With `Clc1ccc(C(N/N=C/c2ccco2)n2ccc3ccccc32)cc1` (centres unmarked) [Compound 1d] the pIC50 [1] was 4.10, the GI50 ([2]; MCF7, MCF-7) was 0.89 µM and the CC50 [2, 5] was 65 µM. The IC (TGI) ([2]; MCF7, MCF-7) was 9.3 µM, the pIC50 (lung cells (MRC5)) was 4.25 and the GI50 ([3]; HepG2) was 1 µM. For the same compound, the LC50 (NCI lethal concentration 50%) [3, 6] was 54 µM, the IC (TGI) [3, 7] was 0.25 µM and the pIC50 (liver cells (LO2)) was 4.18. For the same compound, the GI50 [4, 8] was 8.9 µM, the CC50 [4, 9] was 0.5 µM and the IC (TGI) ([4]; tumor growth inhibition) was 6.8 µM.

`COc1ccc(C(N/N=C/c2ccco2)n2ccc3ccccc32)cc1` (centres unmarked) [Compound 1e] was tested, and the pIC50 [1] was 4.24, the GI50 ([2]; MCF7, MCF-7) was 24.4 µM and the CC50 [2, 5] was 66.3 µM. It also gave an IC (TGI) ([2]; MCF7, MCF-7) of 59.3 µM, a pIC50 (lung cells (MRC5)) of 4.14 and a GI50 ([3]; HepG2) of 15.9 µM. For the same compound, the LC50 (NCI lethal concentration 50%) [3, 6] was 44.8 µM, the IC (TGI) [3, 7] was 38.2 µM and the pIC50 (liver cells (LO2)) was 4.25. It also gave a GI50 [4, 8] of 34.2 µM, a CC50 [4, 9] of over 100 µM and an IC (TGI) ([4]; tumor growth inhibition) of 72.1 µM.

Work on `Oc1ccccc1C(N/N=C/c1ccco1)n1ccc2ccccc21` (centres unmarked) [Compound 1f] yielded a pIC50 [1] of 4.18, a GI50 ([2]; MCF7, MCF-7) of 18.6 µM and a CC50 [2, 5] of 42.3 µM. For the same compound, the IC (TGI) ([2]; MCF7, MCF-7) was 41.8 µM, the pIC50 (lung cells (MRC5)) was 4.29 and the GI50 ([3]; HepG2) was 29.1 µM. For the same compound, the LC50 (NCI lethal concentration 50%) [3, 6] was 57.5 µM, the IC (TGI) [3, 7] was 46.8 µM and the pIC50 (liver cells (LO2)) was 4.17. The GI50 [4, 8] was 21.6 µM, the CC50 [4, 9] was 77.4 µM and the IC (TGI) ([4]; tumor growth inhibition) was 54.7 µM.

`COc1cc(C(N/N=C/c2ccco2)n2ccc3ccccc32)ccc1O` (centres unmarked) [Compound 1g] gave a pIC50 [1] of 4.23, a GI50 ([2]; MCF7, MCF-7) of 34 µM and a CC50 [2, 5] of 30.5 µM. It also gave an IC (TGI) ([2]; MCF7, MCF-7) of 67.4 µM, a pIC50 (lung cells (MRC5)) of 4.20 and a GI50 ([3]; HepG2) of 48 µM. It also gave an LC50 (NCI lethal concentration 50%) [3, 6] of 59.3 µM, an IC (TGI) [3, 7] of 61.3 µM and a pIC50 (liver cells (LO2)) of 4.15. For the same compound, the GI50 [4, 8] was 37.9 µM, the CC50 [4, 9] was 58.9 µM and the IC (TGI) ([4]; tumor growth inhibition) was 51.9 µM.

`CN(C)c1ccc(C(N/N=C/c2ccco2)n2ccc3ccccc32)cc1` (centres unmarked) [Compound 1h] gave a pIC50 [1] of 4.17, a GI50 ([2]; MCF7, MCF-7) of 12.9 µM and a CC50 [2, 5] of 10.3 µM. It also gave an IC (TGI) ([2]; MCF7, MCF-7) of 45.3 µM, a pIC50 (lung cells (MRC5)) of 4.18 and a GI50 ([3]; HepG2) of 21.3 µM. For the same compound, the LC50 (NCI lethal concentration 50%) [3, 6] was 72.1 µM, the IC (TGI) [3, 7] was 41 µM and the pIC50 (liver cells (LO2)) was 4.23. It also gave a GI50 [4, 8] of 52.9 µM, a CC50 [4, 9] of over 100 µM and an IC (TGI) ([4]; tumor growth inhibition) of 81.3 µM.

Compound `C(=N\NCn1ccc2ccccc21)/c1ccco1` [Compound 1j] has a pIC50 [1] of 4.28, a GI50 ([2]; MCF7, MCF-7) of 56 µM and a CC50 [2, 5] of 78.6 µM. It also gave an IC (TGI) ([2]; MCF7, MCF-7) of 49.3 µM, a pIC50 (lung cells (MRC5)) of 4.12 and a GI50 ([3]; HepG2) of 40.3 µM. The LC50 (NCI lethal concentration 50%) [3, 6] was 66.8 µM, the IC (TGI) [3, 7] was 45.3 µM and the pIC50 (liver cells (LO2)) was 4.15. For the same compound, the GI50 [4, 8] was 2.3 µM, the CC50 [4, 9] was 48.3 µM and the IC (TGI) ([4]; tumor growth inhibition) was 58.3 µM.

For `COc1cccc2c1C(=O)c1c(O)c3c(c(O)c1C2=O)C[C@@](O)(C(=O)CO)C[C@@H]3O[C@H]1C[C@H](N)[C@H](O)[C@H](C)O1` [Doxorubicin, reference compound], the GI50 ([2]; MCF7, MCF-7) was 0.02 µM, the CC50 [2, 5] was 0.74 µM and the IC (TGI) ([2]; MCF7, MCF-7) was 0.21 µM. For the same compound, the GI50 ([3]; HepG2) was 0.01 µM, the IC (TGI) [3, 7] was 0.13 µM and the GI50 [4, 8] was 0.05 µM. The CC50 [4, 9] was 0.88 µM and the IC (TGI) ([4]; tumor growth inhibition) was 0.41 µM.
